In data set [1] the test system is Calu-6. Kind of data set: Antiproliferative activity against human Calu6 cells harboring KRAS Q61K mutant assessed as reduction cell viability after 72 hrs by CellTiter-Glo assay. Format: functional, cell-based. To be noted: Calu-6, 72 h.
Data set [2] can be described thus: Solubility of compound at pH 6.8 by shake-flask assay. To be noted: buffer.
In data set [3] the target is T1, RAF proto-oncogene serine/threonine-protein kinase (Homo sapiens, UniProt P04049). Kind of data set: Inhibition CRAF in human Calu6 cells assessed as decrease in MEK phosphorylation after 2 hrs by HTRF method. Format: cell-based. Background: Time-resolved FRET reads energy transfer from a long-lived donor to a nearby acceptor.
T1 sequence (P04049 whole entry): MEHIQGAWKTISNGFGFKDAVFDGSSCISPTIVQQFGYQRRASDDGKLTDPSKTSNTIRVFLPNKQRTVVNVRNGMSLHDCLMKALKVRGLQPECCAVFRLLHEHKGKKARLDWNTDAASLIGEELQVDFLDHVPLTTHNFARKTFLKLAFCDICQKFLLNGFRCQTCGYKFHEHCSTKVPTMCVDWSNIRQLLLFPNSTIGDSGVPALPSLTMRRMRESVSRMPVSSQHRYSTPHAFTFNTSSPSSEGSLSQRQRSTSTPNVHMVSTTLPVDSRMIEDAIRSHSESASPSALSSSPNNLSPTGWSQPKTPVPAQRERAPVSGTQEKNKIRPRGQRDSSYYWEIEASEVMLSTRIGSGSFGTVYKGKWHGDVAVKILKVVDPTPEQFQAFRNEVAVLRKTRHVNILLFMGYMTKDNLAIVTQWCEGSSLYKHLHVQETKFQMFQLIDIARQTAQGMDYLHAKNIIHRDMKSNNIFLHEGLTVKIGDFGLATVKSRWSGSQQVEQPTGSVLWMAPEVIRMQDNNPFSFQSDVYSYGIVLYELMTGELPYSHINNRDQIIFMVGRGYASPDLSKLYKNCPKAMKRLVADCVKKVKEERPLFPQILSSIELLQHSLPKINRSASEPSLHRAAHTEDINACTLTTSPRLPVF
Data set [4] can be described thus: Apparent permeability across apical to basolateral side in human Caco2 cells at pH 7.4 by LC/MS/MS analysis. To be noted: Caco-2, pH 7.4. (Caco-2 monolayers are a common model of the intestinal barrier.)
A short description of data set [5]: Apparent permeability across basolateral to apical side in human Caco2 cells at pH 7.4 by LC/MS/MS analysis. To be noted: Caco-2, pH 7.4.
Data set [6] in a line: Intrinsic clearance in human liver microsomes. The format is ADME, microsome. The following applies: read-out: CLH. (Liver microsomes are a subcellular fraction often used to study metabolism.)
Data set [7] concerns the target RAF proto-oncogene serine/threonine-protein kinase (Homo sapiens, UniProt P04049, Y340E/Y341E). Kind of data set: Inhibition of CRAF Y340E/Y341E mutant (unknown origin) using human MEK1 K97R mutant as substrate pretreated for 30 mins followed by substrate addition measured after 40 mins by alphascreen assay.
The nature of data set [8]: Intrinsic clearance in rat liver microsomes. Format: ADME, microsome. To be noted: read-out: CLH.
Data set [9] concerns the target Serine/threonine-protein kinase B-raf (Homo sapiens, UniProt P15056). Kind of data set: Binding affinity to human BRAF (429 to 741 residues) expressed in mammalian expression system at 1 uM by kinome scan assay relative to control.
For data set [10], the system named is Serine/threonine-protein kinase B-raf (Homo sapiens), P15056 [V600E]. Put plainly: Binding affinity to human BRAF V600E mutant (429 to 741 residues) expressed in mammalian expression system at 1 uM by kinome scan assay relative to control.
Chain of Serine/threonine-protein kinase B-raf (Homo sapiens), P15056 [V600E] (P15056 whole entry V600E, the tested form may be a part): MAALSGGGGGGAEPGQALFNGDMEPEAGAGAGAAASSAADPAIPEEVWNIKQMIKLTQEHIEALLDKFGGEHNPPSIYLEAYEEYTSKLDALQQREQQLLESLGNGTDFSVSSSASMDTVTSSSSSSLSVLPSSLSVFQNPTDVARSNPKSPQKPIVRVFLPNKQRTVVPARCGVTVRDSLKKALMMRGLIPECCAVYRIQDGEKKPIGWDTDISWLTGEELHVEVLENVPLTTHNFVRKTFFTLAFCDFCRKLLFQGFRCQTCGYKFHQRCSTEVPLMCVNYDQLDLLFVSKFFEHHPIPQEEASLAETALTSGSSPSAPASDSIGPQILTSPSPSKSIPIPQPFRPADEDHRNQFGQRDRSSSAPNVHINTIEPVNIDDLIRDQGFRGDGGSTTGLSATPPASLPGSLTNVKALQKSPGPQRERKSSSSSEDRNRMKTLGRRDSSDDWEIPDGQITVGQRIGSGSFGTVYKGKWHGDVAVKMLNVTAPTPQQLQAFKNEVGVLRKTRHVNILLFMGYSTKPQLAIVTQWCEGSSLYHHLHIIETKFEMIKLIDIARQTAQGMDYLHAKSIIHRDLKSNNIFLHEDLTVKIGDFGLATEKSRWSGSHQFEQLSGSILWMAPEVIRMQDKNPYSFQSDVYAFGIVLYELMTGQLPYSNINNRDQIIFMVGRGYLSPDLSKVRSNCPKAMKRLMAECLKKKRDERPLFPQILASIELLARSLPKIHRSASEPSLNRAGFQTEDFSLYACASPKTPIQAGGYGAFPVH
A short description of data set [11]: AUC in Sprague-Dawley rat at 3 mg/kg, po. The format is ADME, organism-based. The following applies: in vivo.
Data set [12] can be described thus: Clearance in Sprague-Dawley rat 1 mg/kg, iv or 3 mg/kg, po. Format: ADME, organism-based. To be noted: in vivo.
A short description of data set [13]: Cmax in Sprague-Dawley rat at 3 mg/kg, po. The format is ADME, organism-based. On the set-up: dose 3 mg/kg, route oral. The following applies: in vivo.
Data set [14] can be described thus: Oral bioavailability in Sprague-Dawley rat at 3 mg/kg. Format: ADME, organism-based. To be noted: in vivo.
Data set [15] deals with Platelet-derived growth factor receptor alpha (Homo sapiens) (UniProt P16234). Kind of data set: Binding affinity to human PDGFRalpha (330 to 640 residues) expressed in mammalian expression system at 1 uM by kinome scan assay relative to control.
Chain of Platelet-derived growth factor receptor alpha (Homo sapiens) (P16234 whole entry, the tested form may be a part): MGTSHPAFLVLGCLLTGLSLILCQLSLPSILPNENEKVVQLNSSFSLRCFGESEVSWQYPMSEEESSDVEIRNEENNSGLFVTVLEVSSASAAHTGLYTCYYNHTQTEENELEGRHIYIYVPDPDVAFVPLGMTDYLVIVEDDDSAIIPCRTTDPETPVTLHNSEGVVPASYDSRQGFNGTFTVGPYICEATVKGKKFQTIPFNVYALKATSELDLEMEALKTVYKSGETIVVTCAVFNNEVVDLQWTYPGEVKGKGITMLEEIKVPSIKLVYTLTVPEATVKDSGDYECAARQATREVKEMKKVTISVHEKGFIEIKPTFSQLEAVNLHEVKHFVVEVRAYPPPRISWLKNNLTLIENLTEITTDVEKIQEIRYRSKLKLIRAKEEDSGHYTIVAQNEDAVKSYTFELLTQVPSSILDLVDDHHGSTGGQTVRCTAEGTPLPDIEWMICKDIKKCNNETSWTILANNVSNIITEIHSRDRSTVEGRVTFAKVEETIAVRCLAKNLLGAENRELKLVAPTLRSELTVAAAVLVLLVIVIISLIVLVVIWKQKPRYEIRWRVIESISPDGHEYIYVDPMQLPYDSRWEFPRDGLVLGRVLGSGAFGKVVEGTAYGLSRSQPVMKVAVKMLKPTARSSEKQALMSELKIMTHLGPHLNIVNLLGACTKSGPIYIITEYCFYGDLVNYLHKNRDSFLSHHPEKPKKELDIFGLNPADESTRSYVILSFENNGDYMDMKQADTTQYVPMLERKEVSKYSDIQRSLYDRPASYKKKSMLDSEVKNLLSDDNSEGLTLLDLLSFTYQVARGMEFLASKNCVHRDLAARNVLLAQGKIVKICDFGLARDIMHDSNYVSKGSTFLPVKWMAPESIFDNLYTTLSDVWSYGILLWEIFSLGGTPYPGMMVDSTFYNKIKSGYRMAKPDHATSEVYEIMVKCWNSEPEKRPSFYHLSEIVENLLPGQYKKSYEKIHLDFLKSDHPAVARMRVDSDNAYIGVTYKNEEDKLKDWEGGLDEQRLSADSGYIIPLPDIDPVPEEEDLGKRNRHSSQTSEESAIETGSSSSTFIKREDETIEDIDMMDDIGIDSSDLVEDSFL
Data set [16] has as its target T1, RAF proto-oncogene serine/threonine-protein kinase. Put plainly: Activation of CRAF in human Calu6 cells assessed as increase in MEK phosphorylation at 3 uM after 2 hrs by FRET assay. Format: cell-based.

Molecules are shown by their SMILES. Values after ≈ are worked out from the molar mass of the structure shown.

Chain of RAF proto-oncogene serine/threonine-protein kinase (Homo sapiens, UniProt P04049, Y340E/Y341E) (P04049 whole entry Y340E/Y341E): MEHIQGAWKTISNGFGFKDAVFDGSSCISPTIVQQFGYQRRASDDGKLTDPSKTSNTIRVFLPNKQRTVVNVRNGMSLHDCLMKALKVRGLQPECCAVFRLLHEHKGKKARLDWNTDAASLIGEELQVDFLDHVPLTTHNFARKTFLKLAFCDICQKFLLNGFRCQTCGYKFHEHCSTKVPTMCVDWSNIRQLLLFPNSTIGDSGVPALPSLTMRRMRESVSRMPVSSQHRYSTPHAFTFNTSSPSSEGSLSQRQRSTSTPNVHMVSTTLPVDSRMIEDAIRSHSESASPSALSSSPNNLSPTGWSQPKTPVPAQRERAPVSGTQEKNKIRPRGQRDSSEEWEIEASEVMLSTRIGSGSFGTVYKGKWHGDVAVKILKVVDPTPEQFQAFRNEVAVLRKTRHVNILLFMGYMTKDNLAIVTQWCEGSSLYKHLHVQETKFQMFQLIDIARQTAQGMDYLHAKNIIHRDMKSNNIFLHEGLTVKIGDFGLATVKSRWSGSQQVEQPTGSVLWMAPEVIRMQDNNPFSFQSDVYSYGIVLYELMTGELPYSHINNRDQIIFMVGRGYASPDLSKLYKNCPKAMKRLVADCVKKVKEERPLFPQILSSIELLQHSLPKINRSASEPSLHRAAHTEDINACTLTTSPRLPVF
Chain of Serine/threonine-protein kinase B-raf (P15056 whole entry, the tested form may be a part): as the sequence (P15056 whole entry V600E, the tested form may be a part) above, with E600V counted along it

Usually EC50 stands for the concentration at which the effect is half-maximal. What is called solubility (thermodynamic) is the concentration in solution at equilibrium with solid. Turning to `Cc1ncc(NC(=O)c2cccc(C(F)(F)F)c2)cc1-c1cnc(OC(C)C)c(N2CCOCC2)c1`, the EC50 in [1] came out at 2900 nM. In addition, the solubility (thermodynamic) in data set [2] was < 2 µM.

The term Papp A→B denotes the apparent permeability from the apical to the basolateral side of a cell layer. What is called Papp B→A is how fast a substance crosses the layer from the basolateral side. In the case of `Cc1ncc(NC(=O)c2cccc(C(F)(F)F)c2)cc1-c1cc(N2CCOCC2)c(=O)n(C)c1`, the results for the EC50 in data set [1] and in data set [3] were 1800 nM and 460 nM, respectively. In data set [4], the Papp A→B is 7 ×10⁻⁶ cm/s. Besides, the Papp B→A in data set [5] is 43 ×10⁻⁶ cm/s. In addition, the thermodynamic solubility in data set [2] was 20 µM (≈ 9.45 µg/mL). In data set [6], the microsomal CLint was < 7.7 µL/min/mg.

The term IC50 denotes the concentration needed to halve the response being measured. On to `Cc1ccc(C(=O)Nc2cccc(C(C)(C)C)c2)cc1-c1cc(N2CCOCC2)ncn1`, for which the IC50 in data set [7] was found to be 0.5 nM. Also, the EC50 stood at 6400 nM in [1] and 200 nM in [3]. In addition, the Papp A→B in [4] amounted to 15 ×10⁻⁶ cm/s. Further, the Papp B→A in data set [5] was found to be 15 ×10⁻⁶ cm/s. The compound further yielded a solubility (thermodynamic) in data set [2] of 20 µM (≈ 8.61 µg/mL). Further, the microsomal CLint came out at 210 µL/min/mg in [8] and 170 µL/min/mg in data set [6].

For the compound `Cc1ccc(NC(=O)c2cccc(C(F)(F)F)c2)cc1-c1cn(C)c(=O)c(N2CCOCC2)n1`, the EC50 in data set [1] is 4100 nM; in [3], 200 nM. Also, the Papp A→B in data set [4] amounted to 21 ×10⁻⁶ cm/s. In data set [5], the Papp B→A was 16 ×10⁻⁶ cm/s. In addition, the solubility (thermodynamic) in [2] was found to be 190 µM (≈ 89.8 µg/mL). Further, the microsomal CLint in [6] came out at 110 µL/min/mg.

For the compound `COc1ncc(-c2cc(NC(=O)c3cccc(C(F)(F)F)c3)cnc2C)cc1N1CCOCC1`, in data set [1], the concentration for a half-maximal effect (EC50) amounted to 1600 nM. Besides, the Papp A→B in [4] was determined as 16 ×10⁻⁶ cm/s. In addition, the Papp B→A in [5] is 14 ×10⁻⁶ cm/s. Further, the solubility (thermodynamic) in [2] is < 2 µM.

As to `Cc1ccc(NC(=O)c2cccc(C(F)(F)F)c2)cc1-c1ccnc(N2CCOCC2)c1`, the 50% effective concentration (EC50) in data set [1] was 700 nM; in data set [3] it was 200 nM. Also, in data set [5], the basolateral-to-apical permeability (Papp B→A) was 1.8 ×10⁻⁶ cm/s. In [2], the solubility (thermodynamic) is < 2 µM.

As for `Cc1ncc(NC(=O)c2cccc(C(F)(F)F)c2)cc1-c1cnc(OCCO)c(N2CCOCC2)c1`, in data set [1], the concentration giving a half-maximal response (EC50) was 2500 nM. Besides, the Papp A→B in data set [4] was 5 ×10⁻⁶ cm/s. Moreover, in data set [5], the Papp B→A worked out at 45 ×10⁻⁶ cm/s. Besides, the solubility (thermodynamic) in data set [2] was 24 µM (≈ 12.1 µg/mL).

In general, AUC refers to concentration integrated over time. A lower AUC goes with less exposure. As a reminder, the Cmax is the maximum level reached in the sampled fluid or tissue. One may read the bioavailability as dose-corrected exposure relative to a reference, in per cent. A high value points to much systemic uptake. As to `Cc1ccc(NC(=O)c2cccc(C(F)(F)F)c2)cc1-c1cc(N2CCOCC2)c(=O)n(C)c1`, in data set [1], the EC50 was determined as 500 nM. Also, the Papp A→B in data set [4] was determined as 20 ×10⁻⁶ cm/s. In addition, the Papp B→A in data set [5] was 22 ×10⁻⁶ cm/s. For the same compound, the thermodynamic solubility in data set [2] is 70 µM (≈ 33 µg/mL). In addition, the microsomal CLint in data set [8] stood at 46 µL/min/mg; in [6] it was 51 µL/min/mg. Moreover, the Activity in [9] was > 99%; in [10], > 99%; in data set [15] it was 89%. In [11], this compound came in with an AUC of 0.438 µM·h. The clearance in data set [12] came out at 53 mL/min/kg. For the same compound, in data set [13], the highest level (Cmax) was 150 nM. In addition, the bioavailability in [14] stood at 22%.

As for `Cc1ccc(C(=O)Nc2cccc(C(F)(F)F)c2)cc1-c1cc(N2CCOCC2)ncn1`, the half-inhibitory concentration (IC50) in data set [7] worked out at 2 nM. The EC50 came out at 3100 nM in [1] and 700 nM in [3].

As for `Cc1ncc(NC(=O)c2ccnc(C(F)(F)F)c2)cc1-c1cc(N2CCOCC2)c(=O)n(C)c1`, the IC50 in [7] came out at 1 nM. Further, the EC50 in [1] was > 30000 nM; in [3], 3960 nM. The Papp A→B in [4] amounted to 3 ×10⁻⁶ cm/s. In [5], the Papp B→A was determined as 39 ×10⁻⁶ cm/s. The thermodynamic solubility in [2] was 1040 µM (≈ 492 µg/mL). The microsomal CLint in data set [6] is < 7.7 µL/min/mg.

As for `Cc1ccc(NC(=O)c2cccc(C(F)(F)F)c2)cc1-c1cc(N2CCOCC2)ncn1`, the concentration giving a half-maximal response (EC50) in data set [1] was found to be 5200 nM. The Papp A→B in data set [4] came out at 19 ×10⁻⁶ cm/s. Also, the Papp B→A in data set [5] stood at 38 ×10⁻⁶ cm/s. Moreover, the solubility (thermodynamic) in data set [2] was found to be 16 µM (≈ 7.08 µg/mL). The microsomal CLint in data set [8] came to 79 µL/min/mg; in data set [6], 43 µL/min/mg.

On to `CCCS(=O)(=O)Nc1ccc(F)c(C(=O)c2c[nH]c3ncc(-c4ccc(Cl)cc4)cc23)c1F` [VEMURAFENIB], for which the result in data set [16] was Active.

For the origin of these results see ChEMBL document CHEMBL4011620, “Design and Discovery of N-(2-Methyl-5'-morpholino-6'-((tetrahydro-2H-pyran-4-yl)oxy)-[3,3'-bipyridin]-5-yl)-3-(trifluoromethyl)benzamide (RAF709): A Potent, Selective, and Efficacious RAF Inhibitor Targeting RAS Mutant Cancers” (J Med Chem, 2017).
